Assays:
J774.1 macrophage cells = experiment: TNFα production in J774.1 macrophages (Example 9); format: cell-based; conditions: 2 ng/mL LPS
Method: J774.1 macrophage cells were plated at 2×10^5 cells/well in 24 well plates. The next day the media was changed and Compound 100, Compound 103 or cyclodextrin carrier were added to the wells at the indicated concentrations for 30 min prior to stimulation of the cells with 2 ng/mL lipopolysaccharide (LPS). LPS activation of macrophages leads to production of TNF alpha which can be detected in the culture supernatant and quantified by ELISA. The results are depicted in a graph in FIG. 1.

J774.1a macrophage cells [1] = experiment: Macrophage TNF-α production (Assay 2); format: cell-based; conditions: 10 μg/mL test compound, 100 ng/mL LPS, ELISA; note: key: a ‘+’ indicates a positive result for desired activity; a ‘−’ indicates a negative result for desired activity
Method: Assay 2) Macrophage TNF-α production. J774.1a macrophage cells were treated with 10 μg/mL of test compound dissolved in solvent (e.g. cyclodextran) for 40 minutes prior to the addition of 100 ng/mL LPS. Culture supernatants were collected after 2 hr and 5 hr for TNF-α determination by ELISA.

J774.1a macrophage cells [2] = experiment: Macrophage TNF-α NO assay (Assay 3); format: cell-based; conditions: 10 μg/ml test compound, LPS, 24 hr, Griess reagent; note: key: a ‘+’ indicates a positive result for desired activity; a ‘−’ indicates a negative result for desired activity
Method: Assay 3) Macrophage TNF-α NO assay. J774.1a macrophage cells were treated with 10 μg/ml of test compound dissolved in solvent for 40 minutes prior to the addition of LPS. Culture supernatants were collected after 24 hr. for determination of NO concentration using the Griess reagent.

Mast cells = experiment: Stimulation of mast cells by FcεRI crosslinking (Assay 4); format: cell-based; conditions: anti-DNP IgE, DNP-HSA
Method: Assay 4) Stimulation of mast cells by FcåRI crosslinking. Mast cells were pre-loaded overnight in BMMC medium lacking IL-3 with 0.1 μg/ml anti-DNP IgE (SPE-7, Sigma, Oakville, Ont). For calcium flux measurements, cells were incubated with 2 μM fura 2-acetoxymethyl ester (Molecular Probes, Eugene, Oreg.) in Tyrode's buffer at 23° C. for 45 min. Cells were then washed and incubated in the presence of the test compound 30 min prior to stimulation with the indicated concentration of DNP-human serum albumin (DNP-HSA). Calcium influx was monitored by spectrofluorometry as described previously. For analysis of intracellular signaling, cells were pre-loaded with anti-DNP IgE as above, pre-treated with the test compound for 30 min at 37° C. and stimulated with 20 ng/ml DNP-HSA for 5 min. Total cell lysates were then prepared and analyzed for phospho-PKB, phospho-p38^MAPK, phospho-MAPK, Grb-2 (Cell Signalling, Mississauga, Ont) and SHIP^6 by immunoblot analysis.

[3] = system: Bone marrow derived mast cells; experiment: Calcium influx in mast cells (Example 11); format: cell-based; conditions: anti IgE antibody, Fura-2
Source text: The activation of mast cells by IgE receptor crosslinking leads to an influx of calcium into the cells, followed by degranulation and secretion of pro-inflammatory mediator. Bone marrow derived mast cells were loaded with the fluorescent calcium indicator dye Fura-2 prior to treatment for 1 hr with Compound 106 or PBS carrier. Cells were then stimulated or not with an anti IgE antibody to cross-link the IgE receptors. Calcium influx was then monitored by fluorimetry. The results are depicted in a graph in FIG. 3.

[4] = system: SHIP+/+ bone marrow derived macrophages; experiment: LPS stimulation of SHIP+/+ bone marrow derived macrophages; format: cell-based, mice; conditions: SHIP+/+ cells, 15 μM, 10 ng/mL LPS 2 h
Method: (§1) Bone marrow cells were aspirated from 4 to 8 week old C57B16×129Sv mixed background mice and SHIP and SHIP cells prepared as described previously. Bone marrow derived macrophages from SHIP^+/+ and SHIP^−/− mice were obtained and maintained in IMDM supplemented with 10% FCS, 150 μM MTG, 2% C127 cell conditioned medium as a source of macrophage colony stimulating factor (M-CSF) (macrophage medium)
LPS stimulation of macrophages. For the analysis of LPS-stimulated TNFα production, 2×10^5 cells were plated the night before in 24 well plates in macrophage medium. The next day, the medium was changed and AQX-016A or carrier was added to cells at the indicated concentrations for 30 min prior to the addition of 10 ng/mL LPS. Supernatants were collected for TNFα determination by ELISA (BD Biosciences, Mississauga, ON, Canada). For analysis of intracellular signaling, 2×10^6 cells were plated the night before in 6 cm tissue culture plates. The next day, the cells were cultured in macrophage medium without M-CSF for 1 hr at 37° C. and then pretreated with AQX-016A or carrier for 30 min prior to the addition of 10 ng/mL LPS for 15 min. Cells were washed with 4° C. PBS and resuspended in lysis buffer (50 mM Hepes, 2 mM EDTA, 1 mM NaVO4, 100 mM NaF, 50 mM NaPPi and 1% NP40) supplemented with Complete Protease Inhibitor Cocktail (Roche, Montreal, Canada). Lysates were rocked at 4° C. for 30 min and clarified by centrifuging 20 min at 12000×g. Lysates were then made 1× in Laemmli's buffer, boiled 2 min and loaded onto 7.5% SDS polyacrylamide […]. Immunoblot analysis for phospho PKB (Cell Signalling, Mississauga, Ont), SHIP and actin (Santa Cruz, Santa Cruz, Calif.) were carried out as described previously.
The target specificity and biological efficacy of AQX-016A were assessed by comparing AQX-016A's effects on PI3K-regulated processes in primary SHIP^+/+ vs SHIP^−/− macrophages and mast cells. […] LPS stimulation of macrophages is associated with a PIP3-dependent release of pro-inflammatory mediators such as TNFα. […]

[5] = system: SHIP−/− bone marrow derived macrophages; experiment: LPS stimulation of SHIP−/− bone marrow derived macrophages; format: cell-based, mice; conditions: SHIP−/− cells, 15 μM, 10 ng/mL LPS 2 h
Method: as §1
LPS stimulation of macrophages. For the analysis of LPS-stimulated TNFα production, 2×10^5 cells were plated the night before in 24 well plates in macrophage medium. The next day, the medium was changed and AQX-016A or carrier was added to cells at the indicated concentrations for 30 min prior to the addition of 10 ng/mL LPS. Supernatants were collected for TNFα determination by ELISA (BD Biosciences, Mississauga, ON, Canada). For analysis of intracellular signaling, 2×10^6 cells were plated the night before in 6 cm tissue culture plates. The next day, the cells were cultured in macrophage medium without M-CSF for 1 hr at 37° C. and then pretreated with AQX-016A or carrier for 30 min prior to the addition of 10 ng/mL LPS for 15 min. Cells were washed with 4° C. […]
The target specificity and biological efficacy of AQX-016A were assessed by comparing AQX-016A's effects on PI3K-regulated processes in primary SHIP^+/+ vs SHIP^−/− macrophages and mast cells. […]

ΔC2 SHIP = experiment: SHIP enzyme assay with C2 domain deleted SHIP; format: biochemical; conditions: PI-3,4-P2 20 μM or Compound 100 3 μM, 30 μM IP4
Source text: A His6 tagged SHIP ΔC2 domain deletion mutant (deleting residues 725 to 863) in the mammalian expression vector pME18S was generated by a standard PCR-based methodology. An N-terminal His6 C2 domain construct was also generated by PCR inserted into the pET28C bacterial expression vector using EcoRI and NdeI restriction sites.
The allosteric regulation of enzymes has remained under-appreciated primarily because allosteric effectors are not easy to find. The molecular mechanism by which Compound 100 activated SHIP was investigated, first by performing classical enzyme kinetic analysis of its phosphatase activity. Activity measurements were performed with substrate concentrations from 10-100 μM.
The SHIP protein contains a C2 domain located at the carboxyterminal end of its phosphatase domain. […] SHIP lacking its the C2 domain (ΔC2 SHIP) was prepared.

SHIP enzyme = experiment: In vitro SHIP enzyme assay (Assay 1); format: biochemical; conditions: wild-type SHIP
Method: Assay 1) In vitro testing in a SHIP enzyme assay. Test compounds were dissolved in a suitable solvent (e.g. EtOH, DMSO and others) and diluted into aqueous buffer (20 mM Tris HCl, pH 7.5 and 10 mM MgCl2). SHIP enzyme assays were performed in 96-well microtitre plates with 10 ng of enzyme/well in a total volume of 25 μL of 20 mM Tris HCl, pH 7.5 and 10 mM MgCl2. SHIP enzyme was incubated with test extracts (provided in solvent) or vehicle for 15 min at 23° C. before the addition of 100 μM inositol-1,3,4,5-tetrakisphosphate (Echelon Biosciences Inc, Salt Lake City, Utah). After 20 min at 37° C. and the amount of inorganic phosphate released assessed by the addition of Malachite Green reagent and absorbance measurement at 650 nm.
For in vitro testing in the SHIP enzyme assay, AQX-016A and Compound 100 were dissolved in EtOH and diluted into aqueous buffer (20 mM Tris HCl, pH 7.5 and 10 mM MgCl2). The actual concentration of drug in solution was determined by optical density measurement at 280 nm (λmax for both compounds) after high speed centrifugation at 14 000×g for 30 min to remove precipitated drug. For testing on cells, compounds were formulated in the carrier cyclodextrin (Cyclodex Technologies, High Springs, Fla.) at 6 mM (2 mg/mL). For oral administration to animals, compounds were dissolved in 100% cremophore EL (Sigma-Aldrich Canada, Oakville, Ontario) at 150 mM (50 mg/mL) prior to dilution to 6 mM in phosphate buffer saline. However, while these compounds caged in cyclodextrin or formulated in cremophore EL micelles were very soluble in aqueous solution, they could not be used in the SHIP enzyme assays because of interference from both cyclodextrin and cremophore EL.
N-terminal His6 tagged SHIP enzyme was expressed in mammalian 293T cells by transient transfection with pME18S-His-SHIP plasmid and purified to >95% homogeneity by Ni-chelating bead chromatography (Qiagen, Mississauga, Ontario). Recombinant SHIP C2 domain (amino acid residues 725 to 863) was expressed in E. coli transformed with a pET28C expression vector constructed as described below. Recombinant protein purified from the cell lysates by Nichelating bead chromatography was >95% pure.
In vitro SHIP enzyme assay. SHIP enzyme assays were performed in 96-well microtitre plates with 10 ng of enzyme/well in a total volume of 25 μL of 20 mM Tris HCl, pH 7.5 and 10 Mm MgCl2. SHIP enzyme was incubated with test extracts (provided in DMSO) or vehicle for 15 min at 23° C. before the addition of 100 μM inositol-1,3,4,5-tetrakisphosphate (Echelon Biosciences Inc, Salt Lake City, Utah). After 20 min at 37° C. and the amount of inorganic phosphate released assessed by the addition of Malachite Green reagent and absorbance measurement at 650 nm. SHIP2 enzyme was purchased from Echelon Biosciences (Salt Lake City, Utah) and an equivalent amount of inositol phosphatase activity was used in the in vitro enzyme assay. Enzyme data are expressed as the mean of triplicates +/−SEM. Experiments were performed at least 3 times. (FIGS. 7A and 7B).

For `Cc1cc(OC(=O)CN)cc2c1[C@]1(C)CCC3C(C)(C)CCC[C@]3(C)[C@H]1C2` (some centres unmarked) [Compound 103], which “inhibition of TNFα production” value (J774.1 macrophage cells) is on record?
The value was “Inhibits TNF Alpha Production Better than Compound 100”.

And the “Assay Number 2: Macrophage TNF-α production” value (J774.1a macrophage cells [1])?
The value was “+”.

And the “Assay Number 3: Macrophage NO” value (J774.1a macrophage cells [2])?
Its value is “+”.

With `Cc1cc(OC(=O)C(N)CCCCN)cc2c1[C@]1(C)CCC3C(C)(C)CCC[C@]3(C)[C@H]1C2` (some centres unmarked) [Compound 106] as the compound, how does the “Assay Number 4: Stimulation of mast cells by FcεRI crosslinking” value (Mast cells) read?
Its value is “+”.

What about the “inhibition of calcium influx” value [3] of the same compound?
The value was “Inhibits Calcium Influx in Mast Cells”.

What about the “Assay Number 2: Macrophage TNF-α production” value (J774.1a macrophage cells [1]) of the same compound?
Its value is “+”.

And the “Assay Number 3: Macrophage NO” value (J774.1a macrophage cells [2])?
The value was “+”.

How did the “suppression of TNFα production” value [4] turn out when `O=c1cc(N2CCOCC2)oc2c(-c3ccccc3)cccc12` [LY294002, reference compound] was run?
Its value is “up to −40%”.

What about the “suppression of TNFα production” value [5] of the same compound?
Its value is “up to −40%”.

`CCCCCCCCCCCCCCCC(=O)OC[C@H](COP(=O)(O)O[C@H]1[C@H](O)[C@@H](O)[C@H](OP(=O)(O)O)[C@@H](OP(=O)(O)O)[C@H]1O)OC(=O)CCCCCCCCCCCCCCC` [PI-3,4-P2, phosphatidylinositol-3,4-bisphosphate diC16, reference compound] was tested. Which “ΔC2 SHIP enzyme activity” value (ΔC2 SHIP) did it give?
The value was “could not be enhanced”.

What about the SHIP enzyme activity (SHIP enzyme) of the same compound?
The SHIP enzyme activity was “activated wild-type SHIP enzyme to a similar extent as Compound 100”.

— US20110263539A1, “SHIP 1 MODULATOR COMPOUNDS” (THE UNIVERSITY OF BRITISH COLUMBIA, priority 2006, published 2011)
